Assay results reported in PMC5568477 (Bioorganic & medicinal chemistry letters, 2017).
pKd: −log10 of the molar value.

Molecular target: T1, olfactomedin domain of human myocilin (myoc-OLF) (Homo sapiens, UniProt Q99972)
T1 sequence (Q99972 244-503 limits assumed): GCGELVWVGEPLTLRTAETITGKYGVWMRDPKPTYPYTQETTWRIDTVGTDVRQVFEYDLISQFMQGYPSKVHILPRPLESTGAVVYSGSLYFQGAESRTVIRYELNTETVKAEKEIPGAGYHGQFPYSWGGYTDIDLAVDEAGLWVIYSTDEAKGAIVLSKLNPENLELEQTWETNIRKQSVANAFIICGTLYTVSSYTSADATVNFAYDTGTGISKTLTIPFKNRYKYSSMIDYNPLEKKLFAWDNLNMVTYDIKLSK
Test: Thermal shift assay by differential scanning fluorimetry
Assay type: binding

[1] = second round of screening, seeded with NSC37433
[2] = initial round of screening, DSF, 5 μM protein, protein alone Tm 49.83

Tm [1]	Tm [2]	SMILES	other results
57.96 °C		Cc1ccc(C(C)C)cc1NC(=O)Nc1ccc([N+](=O)[O-])cc1 [NSC46492]	
	51.85 °C	O=C1c2ccccc2C(=O)C1C(c1ccc([N+](=O)[O-])cc1)C1C(=O)c2ccccc2C1=O [NSC643148]	
83.79 °C		COc1cccc(NC(S)=Nc2ccc(O)cc2)c1 [NSC201634]	increase in the affinity compared to the best hit from the initial round (NSC37433) (second round best hit vs NSC37433): ~ 10,000 fold
	51.33 °C	CN(C)c1ccc(/C=C/C(=O)c2cc(Cl)ccc2O)cc1 [NSC11437]	
	51.61 °C	Nc1nc(N)c(/N=N/c2ccc(C(=O)O)cc2)c(N)n1 [NSC408734]	
	51.49 °C	O=C(Cn1ccc(=O)[nH]c1=O)Nc1ccc(C(=O)O)c(O)c1 [NSC93033]	
	66.27 °C	O=C(/C=C/c1ccc(O)c(O)c1)c1ccccc1O [NSC37433]	
	50.74 °C	COc1cc(C(=O)C(=O)c2ccc(O)c(OC)c2)ccc1O [NSC16722]	

SMILES	Tm [1]	Tm [2]	other results
Cc1cc(N(CCCl)CCCl)ccc1/C=N/NC(=O)Cc1cc(=O)oc2cc(O)ccc12 [NSC79688]		51.43 °C	pKd: 5.70
O=C(Nc1ccc(Oc2ccc(NC(=O)Nc3ccc([N+](=O)[O-])cc3)cc2)cc1)Nc1ccc([N+](=O)[O-])cc1 [NSC80735]	62.86 °C		
